PubChem BioAssay (NCI)
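Five compound concentrations were applied to cells in 96-well plates for 48 hours; endpoints were derived by simple linear interpolation of the resulting dose-response curve. TGI marks complete inhibition of growth.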

Legend:
Experiment in all cases: NCI-60 cell line screen, 48 h
A498 renal = system: A498 renal
A549 NSCLC = system: A549 NSCLC
ACHN renal = system: ACHN renal
CCRF-CEM leukemia = system: CCRF-CEM leukemia
MALME-3M melanoma = system: MALME-3M melanoma
MCF7 breast = system: MCF7 breast
NCI-H522 lung = system: NCI-H522 lung
NCI/ADR-RES ovarian = system: NCI/ADR-RES ovarian
OVCAR-3 ovarian = system: OVCAR-3 ovarian
OVCAR-4 ovarian = system: OVCAR-4 ovarian
SF-295 CNS = system: SF-295 CNS
SNB-75 CNS = system: SNB-75 CNS
T-47D breast = system: T-47D breast
UACC-62 melanoma = system: UACC-62 melanoma
SN12C renal = system: SN12C renal

Structure (SMILES)	TGI (A498 renal)	TGI (A549 NSCLC)	TGI (ACHN renal)	TGI (CCRF-CEM leukemia)	TGI (MALME-3M melanoma)	TGI (MCF7 breast)	TGI (NCI-H522 lung)	TGI (NCI/ADR-RES ovarian)	TGI (OVCAR-3 ovarian)	TGI (OVCAR-4 ovarian)	TGI (SF-295 CNS)	TGI (SNB-75 CNS)	TGI (T-47D breast)	TGI (UACC-62 melanoma)	TGI (SN12C renal)
CCOC(=O)c1nc2ccc(C(F)(F)F)cc2nc1NCc1ccc(OC)cc1	> 100 µM	> 100 µM	> 100 µM	> 100 µM	> 100 µM	> 100 µM	> 100 µM	> 100 µM	> 100 µM	> 100 µM	> 100 µM	> 100 µM	> 100 µM	> 100 µM	–
COC(=O)/C(C#N)=C(\Nc1ccccc1)N1CCOCC1	> 100 µM	> 100 µM	> 100 µM	–	> 100 µM	> 100 µM	> 100 µM	> 100 µM	> 100 µM	> 100 µM	> 100 µM	> 100 µM	> 100 µM	–	> 100 µM
COC(=O)/C=C1\C(=O)N(C(C)=O)c2ccc(Br)cc21	51.6 µM	36 µM	23.9 µM	4.84 µM	35.3 µM	16.8 µM	13.3 µM	36.9 µM	15.7 µM	25.9 µM	31.6 µM	21.8 µM	15.1 µM	25.3 µM	18.3 µM
COc1ccccc1NC(=S)N/N=C/c1c(C)n(C)n(-c2ccccc2)c1=O	> 100 µM	–	> 100 µM	> 100 µM	–	> 100 µM	–	63.9 µM	–	> 100 µM	> 100 µM	> 100 µM	> 100 µM	> 100 µM	–
Cc1cn([C@@H]2C[C@@H]2CO)c(=O)[nH]c1=O	> 100 µM	> 100 µM	> 100 µM	> 100 µM	> 100 µM	> 100 µM	> 100 µM	> 100 µM	–	> 100 µM	–	> 100 µM	> 100 µM	> 100 µM	> 100 µM
CC(=O)C(=[N+]=[N-])C(=O)N1CCOC1=O	> 10 µM	> 10 µM	> 10 µM	> 10 µM	> 10 µM	> 10 µM	–	> 10 µM	> 10 µM	> 10 µM	> 10 µM	> 10 µM	> 10 µM	> 10 µM	> 10 µM
O=C(CC(=O)N1N=C(N2CCCCC2)CC1c1ccccc1)Nc1ccccc1 (centres undefined)	> 100 µM	> 100 µM	> 100 µM	> 100 µM	> 100 µM	> 100 µM	> 100 µM	> 100 µM	> 100 µM	> 100 µM	> 100 µM	> 100 µM	> 100 µM	> 100 µM	> 100 µM
COc1ccc(N=N/C(=N/NC(=O)c2ccc(C)cc2)c2ccc(N(CCC#N)CCC#N)cc2OC)cc1	> 100 µM	> 100 µM	> 100 µM	–	> 100 µM	> 100 µM	> 100 µM	> 100 µM	> 100 µM	> 100 µM	> 100 µM	–	> 100 µM	> 100 µM	> 100 µM
COC(=O)C(N)CCCC(N)C(=O)NC(C)C(=O)NC(CCC(=O)NCCNCCNc1c2ccccc2nc2cccc([N+](=O)[O-])c12)C(N)=O (centres undefined)	40.3 µM	> 43.6 µM	> 61.1 µM	> 50.9 µM	24.8 µM	58.5 µM	–	> 100 µM	47.7 µM	8.05 µM	> 100 µM	26.1 µM	45.8 µM	27.1 µM	39.5 µM
OC(c1ccc(F)cc1)C(F)(F)c1nc2ccccc2o1 (centres undefined)	> 100 µM	–	> 100 µM	> 100 µM	–	> 100 µM	–	> 100 µM	–	> 100 µM	> 100 µM	> 100 µM	> 100 µM	> 100 µM	–
CC[C@H](C)[C@H]1NC(=O)[C@@H](NC(=O)[C@@H](CC(C)C)N(C)C(=O)C2CCCN2C(=O)[C@H](C)O)[C@@H](C)OC(=O)[C@H](Cc2ccc(OC)cc2)N(C)C(=O)[C@@H]2CCCN2C(=O)[C@H](CCCCNC(=O)OCc2ccccc2)NC(=O)[C@H](C)C(=O)[C@H](C(C)C)OC(=O)C[C@@H]1O (some centres undefined)	> 25 µM	> 25 µM	> 25 µM	> 25 µM	20.1 µM	> 25 µM	> 25 µM	> 25 µM	24.8 µM	> 25 µM	> 25 µM	–	> 25 µM	> 25 µM	> 25 µM
O=c1[nH]c(=O)n(COCc2ccccc2)c2ccsc12	> 100 µM	> 100 µM	> 100 µM	> 100 µM	> 100 µM	> 100 µM	> 100 µM	> 100 µM	–	> 100 µM	–	> 100 µM	> 100 µM	–	> 100 µM
O=C(O)CN1C=C(C(=O)c2cc3ccccc3n2S(=O)(=O)c2ccccc2)CCC1	> 100 µM	> 100 µM	> 100 µM	> 100 µM	> 100 µM	> 100 µM	–	> 100 µM	> 100 µM	> 100 µM	> 100 µM	> 100 µM	> 100 µM	> 100 µM	–
O=c1[nH]c(Cc2ccccc2)nc2c1sc1nc3ccccc3n12	> 100 µM	> 100 µM	> 100 µM	> 100 µM	–	> 100 µM	> 100 µM	> 100 µM	> 100 µM	> 100 µM	> 100 µM	> 100 µM	> 100 µM	> 100 µM	> 100 µM
CC#CC(O)(C(=O)OCCCN(C)C)C1CCCCC1 (centres undefined)	> 100 µM	> 100 µM	> 100 µM	> 100 µM	> 100 µM	> 100 µM	–	> 100 µM	> 100 µM	–	> 100 µM	> 100 µM	> 100 µM	> 100 µM	> 100 µM
CC(NC(=O)/C(=C/c1ccccc1)NC(=O)c1ccccc1)C(=O)O (centres undefined)	> 100 µM	> 100 µM	> 100 µM	> 100 µM	> 100 µM	> 100 µM	> 100 µM	> 100 µM	> 100 µM	–	> 100 µM	> 100 µM	> 100 µM	> 100 µM	> 100 µM
CC(=O)C1=C(C)N2C(=NC3=C(CCc4ccccc43)C2c2ccc(F)cc2)S1 (centres undefined)	> 100 µM	> 100 µM	> 100 µM	> 100 µM	–	> 100 µM	–	> 100 µM	> 100 µM	> 100 µM	> 100 µM	> 100 µM	> 100 µM	> 100 µM	> 100 µM
